Data on seven molecules can be found in patent publication US7507803B2, “Optimized multi-epitope constructs and uses thereof” (priority 2002, dated 2009).

In data set [1] the target is HLA-A*0101 (Homo sapiens, UniProt P04439, A114D/A174V/A182V/D101N/D185E/E176A/E190D/L180R/Q94H/R68K/S129P/T187R/V100A/V91M/W191G). The experiment in a line: HLA class I peptide binding assay (purified HLA, IC50).
Data set [2] relates to HLA supertype alleles. Format: binding, human.
Data set [3] concerns HLA transgenic mice. The experiment in a line: CTL priming in HLA transgenic mice after DNA immunization (in situ IFNγ ELISA or chromium release). Background: ELISA stands for enzyme-linked immunosorbent assay.
Data set [4] concerns HLA-A2 transgenic mice. Put plainly: IFN-γ ELISPOT CTL responses after DNA immunization. Format: in vivo, mouse. As to conditions: mice immunized with GCR-5835.
Data set [5] concerns H2^bxd mice. Put plainly: CTL response after peptide/IFA immunization, in situ ELISA. Type of data set: in vivo, mouse. As to conditions: peptide/IFA immunization of H2^bxd mice.
Data set [6] relates to PBL from individuals with acute or chronic HBV infection. As to conditions: independently reported (Sobao et al. 2001); cited from earlier work.
The subject of data set [7] is H2^bxd mice. The experiment in a line: HTL responses, primary IFN-γ ELISPOT on CD4 T cells. Format: in vivo, mouse.
Procedure: H2^bxd mice were immunized intramuscularly with 100 μg of a vaccine HBV HTL epigene construct or the individual peptides emulsified in CFA. Eleven days after the immunization CD4 T cells were purified from splenocytes and HTL responses were measured using a primary IFN-γ ELISPOT assay.
Eleven days after immunization, no booster immunizations were administered, CD4 T cells were purified from the spleen, and peptide specific HTL responses were measured in a primary γ-IFN ELISPOT assay.
The immunogenicity of the HTL epitopes was also characterized using H2^bxd mice.
This construct was tested for immunogenicity in H2^bxd mice (FIG. 28B), measuring IFN-γ production by CD4+ T-lymphocytes using an ELISPOT assay.
Where [8] appears, read: A1 or A24 supertype, three related alleles.
[9] abbreviates: A2, A3 or B7 supertype, five most common members.

Read-outs that look alike come from different tables or passages of the source. Ends that are not written are not given here.

For LTFGRETVLEY [core 137], in data set [1], the IC50 (usually the midpoint of a concentration-inhibition curve) was 80 nM. In data set [2] (setting [8]), the “XRN (number of supertype alleles bound ≦500 nM)” value was found to be 3.
For H-YSLNFMGY-OH [pol 580], the IC50 in data set [1] turned out to be 382 nM. In data set [2] (setting [8]), the “XRN (number of supertype alleles bound ≦500 nM)” value is 3.
Consider `CC[C@H](C)[C@H](NC(=O)[C@@H](NC(=O)[C@H](CC(C)C)NC(=O)[C@@H](NC(=O)[C@H](CCCNC(=N)N)NC(=O)[C@@H](NC(=O)[C@H](CC(C)C)NC(=O)[C@H](CC(C)C)NC(=O)[C@@H](N)Cc1ccccc1)[C@@H](C)O)[C@@H](C)CC)[C@@H](C)O)C(=O)O` [env 183], for which the “XRN (number of supertype alleles bound ≦500 nM)” value in data set [2] (setting [9]) is 4. Also, the “Immunogenicity of the epitope in construct HBV30C” value in data set [3] (mouse, in vivo) is on record as “poorly immunogenic”.
As to `CC(C)C[C@H](NC(=O)[C@H](CO)NC(=O)[C@H](CC(C)C)NC(=O)[C@@H](N)Cc1c[nH]c2ccccc12)C(=O)N[C@@H](CC(C)C)C(=O)N[C@H](C(=O)N1CCC[C@H]1C(=O)N[C@@H](Cc1ccccc1)C(=O)N[C@H](C(=O)O)C(C)C)C(C)C` [env 335], in data set [2] (setting [9]), the “XRN (number of supertype alleles bound ≦500 nM)” value is on record as 4. In data set [4], the “Primary ELISPOT response” value is listed as “approximately 100 SFC/10^6 CD8+ cells”.
With `CC(C)C[C@H](NC(=O)[C@H](CC(C)C)NC(=O)[C@H](Cc1c[nH]c2ccccc12)NC(=O)[C@@H]1CCCN1C(=O)[C@H](Cc1ccccc1)NC(=O)[C@H](CO)NC(=O)[C@@H](NC(=O)[C@H](Cc1ccc(O)cc1)NC(=O)[C@@H](N)CCCCN)[C@@H](C)O)C(=O)O` [pol 745], the “Murine Immunogenicity (SU)” value in data set [5] is 158.7 SU. Besides, the “Recognition by CTL from HBV-infected individuals” value in data set [6] is “recognized by CTL from HBV-infected individuals”.

B1: HBV30K: lead 30 epitope HBV CTL vaccine epigene construct, SEQ ID NO: 71/72 (nucleic acid)
DNA: ATGGGAATGCAGGTGCAAATACAGTCTCTCTTCCTTTTGCTTCTCTGGGTTCCAGGATCACGGGGCTTCTTGCTTAGCTTGGGCATCCACCTAAATGCTGCTGCAAAATACACATCTTTTCCTTGGCTCCTTAATGCCGCCGCTAGGTTTTCATGGCTGAGTCTGCTAGTACCTTTCAATGCGGCTTTCCCACATTGCCTAGCTTTTAGCTATATGAAAGCTGCTTTAGTCGTGGACTTTTCACAGTTTAGCAGAGGAGCAATCCTGCTGCTATGTCTGATATTCCTTCTAAACGCAGCAGCCCACACACTCTGGAAAGCTGGTATCCTTTACAAGAAAGCCTGGATGATGTGGTATTGGGGACCCAGCCTCTACAAAGCATACCCTGCCCTGATGCCACTATACGCATGCATTGGCGCGGCAGCCTGGTTATCCCTTTTAGTACCGTTTGTCAACGCCGCAGCGGGATTTCTATTAACCAGAATCCTGACGATTAATGCTGCCGCCATTCCGATCCCAAGTTCCTGGGCATTCAAAGCAGCCGCGGAGTATCTGGTTTCATTTGGCGTATGGAACCTGCCAAGCGACTTCTTTCCTTCTGTTAAGGCCGCTGCTTTCCTCCCCTCCGATTTCTTTCCATCGGTGAAAGCCGCTGCCGACCTCCTTGATACCGCGAGCGCTCTGTACAACTCGTGGCCAAAATTCGCAGTTCCAAACCTAAAAGCCGCCGCCAGTGCCATTTGTTCCGTGGTAAGGAGAAAATTATCACTCGACGTGTCCGCAGCATTTTATAACGCTGCTGCAAAGTTTGTCGCAGCATGGACATTGAAGGCTGCAGCGAAAGCAGCAAATGTATCAATACCCTGGACCCACAAGGGTGCAGCCGGGCTGTCTAGGTATGTGGCGAGGCTAAACGCCGCCGCCTCAACACTGCCTGAGACTACTGTCGTGAGACGCAAACACCCTGCCGCAATGCCCCACCTGCTGAAAGCAGCCGCACGATGGATGTGCCTCAGAAGATTCATAATAAACGCTTCTTTCTGTGGGTCACCCTACAAAGCCGCTTACATGGACGATGTGGTCCTCGGAGTGAATGCCCTCTGGTTCCATATCAGCTGCCTGACATTCAAGGCAGCCGCCACCCCCGCTCGTGTGACAGGAGGTGTCTTCAAAGCCGCGGCACTGACTTTCGGTCGGGAAACTGTATTGGAATATAAGCAGGCCTTCACATTCTCCCCAACATACAAGTGA
modifications: Hepatitis B Virus
Take B1: the “CTL responses induced by the construct (in words)” value in data set [3] (HLA transgenic mice (HLA-A2, -A3/A11; H2^bxd for A24)) was “CTL responses as vigorous as HBV2”.

B2: HBV HTL: epigene construct encoding 16 HBV HTL epitopes with GPGPG spacers, SEQ ID NO: 73/74 (nucleic acid)
DNA: ATGGGAACTTCTTTTGTGTATGTCCCTTCCGCTCTGAACCCAGCAGACGGACCCGGGCCTGGCCTGTGCCAGGTCTTCGCCGACGCAACTCCCACAGGGTGGGGGCTGGGGCCAGGACCAGGCAGGCACTACCTGCATACTCTGTGGAAGGCAGGAATCCTCTATAAAGGGCCCGGCCCAGGCCCTCACCACACCGCCCTGAGGCAGGCCATCCTGTGCTGGGGGGAGCTCATGACCCTGGCCGGACCTGGACCCGGGGAGAGCAGACTGGTGGTGGATTTCAGCCAATTCAGCAGAGGAAACGGACCCGGCCCTGGGCCTTTTCTGCTGGCTCAGTTTACATCTGCTATTTGTTCTGTGGTCGGCCCCGGGCCCGGACTCGTGCCTTTCGTGCAGTGGTTCGTGGGACTGTCCCCTACAGTCGGGCCCGGCCCAGGGCTGCATCTGTACTCCCACCCAATCATCCTCGGCTTCCGCAAGATTGGACCCGGCCCAGGCTCCAGCAATCTCTCCTGGCTCTCTCTGGACGTGTCTGCCGCCTTTGGCCCTGGACCAGGCCTGCAAAGCCTGACTAATCTGCTCAGCAGCAACCTGTCCTGGCTGGGACCTGGCCCAGGGGCTGGCTTCTTTCTGCTCACCCGGATTCTCACAATTCCCCAGTCCGGACCAGGACCAGGAGTCAGTTTCGGGGTGTGGATCAGGACCCCTCCTGCTTATAGACCACCCAATGCTCCAATCGGCCCCGGCCCTGGCGTCGGGCCACTGACCGTGAATGAGAAGCGCCGGCTGAAGCTGATCGGCCCTGGCCCTGGCAAGCAGTGCTTTCGCAAACTGCCCGTGAACAGACCTATTGATTGGGGCCCCGGCCCTGGAGCAGCCAACTGGATTCTCAGGGGAACAAGCTTCGTCTACGTGCCCGGGCCCGGACCAGGGAAGCAGGCTTTTACCTTCTCTCCCACTTACAAGGCCTTCCTCTGTGGGCCAGGCCCCGGCGCCAAGTTTGTGGCAGCATGGACCCTCAAAGCCGCTGCCTGA
modifications: Hepatitis B virus
Consider B2, for which the “Epitopes with responses as vigorous as those induced by peptides emulsified in CFA (%)” value in data set [7] (100 μg i.m., IFN-γ production by CD4+ T-lymphocytes) turned out to be 50%. Besides, in data set [7] (mouse, in vivo), the “Epitopes that failed to induce a response” value was “two” and the “Epitopes with responses as vigorous as those induced by peptides emulsified in CFA (fraction of epitopes tested)” value was 6/12.
